Results as given in US20210267979A1, “THERAPEUTIC AGENT FOR TREATING DIFFUSE GASTRIC CANCER” (KANAZAWA MEDICAL UNIVERSITY, priority 2018, published 2021).
Where two headings read alike, the source gives them in different places. Values belong to the compound of their own block, whether it stands above or below them.

Columns and labels:
MKN7 = test: Cell proliferation of non-diffuse gastric cancer cells MKN7 (Cell Counting Kit-8); assay type: cell-based, Human; settings: for IC50: Homo sapiens, MKN-7, MKN7
Description: (§1) Cell proliferation was measured by Cell Counting Kit-8 (CCK-8) (Dojindo Laboratories, Kumamoto, Japan) (M. Ishiyama, et al., Talenta 44; 1299: 1997). Cells were seeded at 100 micro L/well at a concentration of 5×10^4 cells/mL and were cultured in an incubator at 37° C. for 24 hours. To each well, HGF (R&D systems) (50 ng/mL) or amphiregulin (R&D Systems (Minneapolis, Minn.)) (100 ng/mL) and trametinib (Selleck Chemicals (Houston, Tex.)) (0.001 to 10 micro M) were then added, and the cells were further cultured in an incubator at 37° C. for 72 hours. To each well, 10 micro L of a WST-solution was added, which was incubated at 37° C. for 4 hours. Absorbance was measured at a wavelength of 450 nm by a microplate reader (BIO-RAD Laboratories, Inc.). A similar experiment was repeated three times in triplets.
(§2) Effects of trametinib on proliferation of non-diffuse gastric cancer cell were examined by the similar method to that in Example 1.
(§3) Human non-diffuse, well-differentiated gastric cancer cells used were MKN7 (Health Science Research Resources Bank (Osaka, Japan)) and GCR1 (Cancer Research Institute, Kanazawa University).

NUGC4 [1] = test: Cell proliferation of diffuse gastric cancer cell strain NUGC4 (Cell Counting Kit-8); assay type: cell-based; settings: for Inhibitory effect on HGF induced, amphiregulin induced and base line cell proliferation: single agent, 0.001 to 10 micro M; for IC50: Homo sapiens, 72 hours
Description: (§4) Each diffuse gastric cancer cell strain of NUGC4 (obtained from Health Science Research Resources Bank (Osaka, Japan)) and GCIY (obtained from Riken BioResource Research Center (Tsukuba, Japan)) was cultured and passaged in an RPMI1640 culture medium containing 10% fetal calf serum, 100 units/mL penicillin, and […] streptomycin antibiotic, and was used for the following experiments. Mycoplasma infection of cultured cells was regularly checked by MycoAlert Mycoplasma Detection kit (Lonza).
as §1

NUGC4 [2] = test: as above; assay type: cell-based; settings: for IC50: Homo sapiens
NUGC4 cells = test: Survival of Balb/c nu/nu mice intraperitoneally transplanted with diffuse gastric cancer cells; assay type: in vivo, Balb/c nu/nu mouse; settings: NUGC4 intraperitoneal transplant; oral administration from day 21 for 4 weeks, then 4 weeks observation; control mice all died within 7 weeks
Description: To a Balb/c nu/nu mouse (6 weeks old), diffuse gastric cancer cells (NUGC4 cells, 2×10^6 cells in 200 micro L PBS) were transplanted by intraperitoneal administration. On 21 days after transplantation, ascites was observed, and oral administration was started with trametinib (0.1 mg/kg body weight or 0.3 mg/kg body weight), everolimus (1.5 mg/kg body weight), combined use of trametinib (0.1 mg/kg body weight) and everolimus (1 mg/kg body weight), combined use of trametinib (0.1 mg/kg body weight) and everolimus (1 mg/kg body weight), combined use of trametinib (0.3 mg/kg) and everolimus (1 mg/kg), or combined use of trametinib (0.3 mg/kg body weight) and everolimus (5 mg/kg body weight). Each of the trametinib and the everolimus was dissolved in a solution (7% DMSO, 13% Tween80, 80% Otsuka glucose injection (5%), HCl equimolar to each compound). To a control group, only a solution containing no medicinal agent was administered. Administration was continued for 4 weeks, followed by observation for the following 4 weeks without administration of the medicinal agent.

MKN45 = test: Cell proliferation of cMet gene-amplified gastric cancer cell strain MKN45 (Cell Counting Kit-8); assay type: cell-based; settings: Homo sapiens
Description: as §1
Effects of trametinib on proliferation of cMet gene-amplified gastric cancer cell were examined by the similar method to that in Example 1.
As the cMet gene-amplified gastric cancer cells, cMet gene-amplified gastric cancer cell strain MKN45 (Health Science Research Resources Bank (Osaka, Japan)) was used.

GCR1 = test: Cell proliferation of non-diffuse gastric cancer cells GCR1 (Cell Counting Kit-8); assay type: cell-based; settings: Homo sapiens
Description: as §1, §2, §3

GCIY = test: Cell proliferation of diffuse gastric cancer cell strain GCIY (Cell Counting Kit-8); assay type: cell-based; settings: for IC50: Homo sapiens
Description: as §4, §1

[3] = HGF induced proliferation, read-out: Trametinib IC50 (micro M) HGF
[4] = HGF induced, combined with everolimus 1 micro M, read-out: Trametinib IC50 (micro M) HGF
[5] = amphiregulin induced proliferation, read-out: Trametinib IC50 (micro M) amphiregulin
[6] = amphiregulin induced, combined with everolimus 1 micro M, read-out: Trametinib IC50 (micro M) amphiregulin
[7] = base line, Example 5, combined use with everolimus 1 micro M, read-out: Trametinib IC50 (micro M) Base line
[8] = without HGF or amphiregulin, read-out: Trametinib IC50 (micro M) Base line

Compound: O=C(NC[C@H](O)CO)c1ccncc1Nc1ccc(I)cc1F [pimasertib]
Proliferation inhibitory effect of combined use of pimasertib and rapamycin (MKN7; MKN7, rapamycin 1 micro M): no combined effect was exhibited

Compound: Cc1cc(NC(=O)c2cccc(NC(=O)/C=C/CN(C)C)c2)ccc1Nc1nccc(-c2cccnc2)n1 [JNK-IN-8]
Inhibitory effect on HGF induced, amphiregulin induced and base line cell proliferation (NUGC4 [1]): did not exhibit obvious inhibitory effects

Compound: O=C(NOC[C@H](O)CO)c1ccc(F)c(F)c1Nc1ccc(I)cc1F [PD0325901]
Proliferation inhibitory effect of combined use of PD0325901 and temsirolimus (MKN7; MKN7, temsirolimus 1 micro M): no combined effect was exhibited | Proliferation inhibitory effect of combined use of PD0325901 and temsirolimus (NUGC4 [2]; temsirolimus 1 micro M): synergistically improved by addition of temsirolimus

Compound: CO[C@H]1C[C@@H]2CC[C@@H](C)[C@@](O)(O2)C(=O)C(=O)N2CCCC[C@H]2C(=O)O[C@H]([C@H](C)C[C@@H]2CC[C@@H](OCCO)[C@H](OC)C2)CC(=O)[C@H](C)/C=C(\C)[C@@H](O)[C@@H](OC)C(=O)[C@H](C)C[C@H](C)/C=C/C=C/C=C/1C [everolimus]
Survival time as compared with the control group (NUGC4 cells): prolonged survival times

IC50 (MKN45; MKN-45, HGF added, read-out: Trametinib IC50 (micro M) HGF): 1 nM | IC50 (MKN45; MKN-45, amphiregulin added, read-out: Trametinib IC50 (micro M) amphiregulin): 1 nM | IC50 (MKN45; MKN-45, without HGF and AP, read-out: Trametinib IC50 (micro M) Base line): 1 nM | IC50 (GCR1; [3]): 100 nM | IC50 (GCR1; [4]): 100 nM | IC50 (GCR1; [5]): 300 nM | IC50 (GCR1; [6]): 100 nM | IC50 (GCR1; [7]): 30 nM | IC50 (GCR1; [8]): 100 nM | IC50 (MKN7; [3]): 100 nM | IC50 (MKN7; [4]): 100 nM | IC50 (MKN7; [5]): 300 nM | IC50 (MKN7; [6]): 100 nM | IC50 (MKN7; [7]): 30 nM | IC50 (MKN7; [8]): 100 nM | IC50 (NUGC4 [1]; NUGC-4, HGF 50 ng/mL induced proliferation, read-out: Trametinib IC50 (micro M) HGF): 100 nM | IC50 (NUGC4 [1]; NUGC-4, amphiregulin 100 ng/mL induced proliferation, read-out: Trametinib IC50 (micro M) amphiregulin): 300 nM | IC50 (NUGC4 [1]; NUGC-4, without HGF and AP, read-out: Trametinib IC50 (micro M) Base line): ≤ 1 nM | IC50 (NUGC4 [2]; NUGC-4, HGF induced, combined with everolimus 1 micro M, read-out: Trametinib IC50 (micro M) HGF): 10 nM | IC50 (NUGC4 [2]; NUGC-4, amphiregulin induced, combined with everolimus 1 micro M, read-out: Trametinib IC50 (micro M) amphiregulin): 30 to 100 nM | IC50 (NUGC4 [2]; NUGC-4, base line, Example 5, combined use with everolimus 1 micro M, read-out: Trametinib IC50 (micro M) Base line): ≤ 1 nM | IC50 (GCIY; HGF 50 ng/mL induced proliferation, 72 hours, read-out: Trametinib IC50 (micro M) HGF): 100 nM | IC50 (GCIY; [4]): 100 nM | IC50 (GCIY; amphiregulin 100 ng/mL induced proliferation, 72 hours, read-out: Trametinib IC50 (micro M) amphiregulin): 10000 nM | IC50 (GCIY; [6]): 300 nM | IC50 (GCIY; [7]): 30 nM | IC50 (GCIY; without HGF and AP, 72 hours, read-out: Trametinib IC50 (micro M) Base line): 100 nM
Compound: CC(=O)Nc1cccc(-n2c(=O)n(C3CC3)c(=O)c3c(Nc4ccc(I)cc4F)n(C)c(=O)c(C)c32)c1 [Trametinib, trametinib]
Concentration from which proliferation inhibitory effect on the amphiregulin induced proliferation was observed (GCIY; amphiregulin induced): ≥ 0.03 micro M

Compound: AZD5363
Inhibitory effect on the HGF induced cell proliferation (NUGC4 [1]; HGF induced): no inhibitory effect was exhibited except for a high concentration of 10 micro M | Inhibitory effect on the amphiregulin induced cell proliferation (NUGC4 [1]; amphiregulin induced): a slight inhibitory effect was exhibited at a high concentration of 1 micro M or more | Inhibitory effect on HGF induced, amphiregulin induced and base line cell proliferation (NUGC4 [1]): even lower than the inhibitory effect of everolimus | Inhibitory effect on the base line cell proliferation (NUGC4 [1]; without HGF and AP): No inhibitory effect was exhibited
